Reference: PubChem BioAssay (NCI)
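Tested at 5 concentrations; 48 h exposure; 96-well plates; endpoints linearly interpolated, else capped at highest concentration. GI50: concentration for 50% inhibition of growth. The concentration for full growth arrest is given as TGI.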

Key:
Assay in all cases: growth of human tumour cells (NCI), 48 h
NCI-H460 lung = system: NCI-H460 lung
CCRF-CEM leukemia = system: CCRF-CEM leukemia
SR leukemia = system: SR leukemia
K-562 leukemia = system: K-562 leukemia
HCT-116 colon = system: HCT-116 colon
UO-31 renal = system: UO-31 renal
EKVX NSCLC = system: EKVX NSCLC
HCC-2998 colon = system: HCC-2998 colon
DU-145 prostate = system: DU-145 prostate
HL-60(TB) leukemia = system: HL-60(TB) leukemia
UACC-62 melanoma = system: UACC-62 melanoma
UACC-257 melanoma = system: UACC-257 melanoma
RXF 393 renal = system: RXF 393 renal
CAKI-1 renal = system: CAKI-1 renal
BT-549 breast = system: BT-549 breast
KM12 colon = system: KM12 colon
SF-268 CNS = system: SF-268 CNS
A498 renal = system: A498 renal
M14 melanoma = system: M14 melanoma
TK-10 renal = system: TK-10 renal
OVCAR-8 ovarian = system: OVCAR-8 ovarian
NCI-H522 lung = system: NCI-H522 lung
SF-539 CNS = system: SF-539 CNS
HOP-92 NSCLC = system: HOP-92 NSCLC
SNB-75 CNS = system: SNB-75 CNS
MOLT-4 leukemia = system: MOLT-4 leukemia
T-47D breast = system: T-47D breast
SK-MEL-28 melanoma = system: SK-MEL-28 melanoma
SK-OV-3 ovarian = system: SK-OV-3 ovarian
RPMI-8226 leukemia = system: RPMI-8226 leukemia
IGROV1 ovarian = system: IGROV1 ovarian
HCT-15 colon = system: HCT-15 colon
ACHN renal = system: ACHN renal
MDA-MB-231 breast = system: MDA-MB-231 breast
OVCAR-3 ovarian = system: OVCAR-3 ovarian
MDA-MB-435 = system: MDA-MB-435
HS 578T breast = system: HS 578T breast
SK-MEL-5 melanoma = system: SK-MEL-5 melanoma
PC-3 prostate = system: PC-3 prostate
NCI-H226 lung = system: NCI-H226 lung
SN12C renal = system: SN12C renal
SF-295 CNS = system: SF-295 CNS
MCF7 breast = system: MCF7 breast
HOP-62 NSCLC = system: HOP-62 NSCLC
HT29 colon = system: HT29 colon
A549 NSCLC = system: A549 NSCLC
786-0 renal = system: 786-0 renal
COLO 205 colon = system: COLO 205 colon
SW-620 colon = system: SW-620 colon
LOX IMVI melanoma = system: LOX IMVI melanoma
OVCAR-4 ovarian = system: OVCAR-4 ovarian
MALME-3M melanoma = system: MALME-3M melanoma
OVCAR-5 ovarian = system: OVCAR-5 ovarian
SNB-19 CNS = system: SNB-19 CNS
U251 CNS = system: U251 CNS
NCI/ADR-RES ovarian = system: NCI/ADR-RES ovarian
NCI-H23 lung = system: NCI-H23 lung
SK-MEL-2 melanoma = system: SK-MEL-2 melanoma

CN(C)CCCNc1nccc(-c2c(-c3ccc(F)cc3)nn3cc(C(F)(F)F)ccc23)n1
GI50 (NCI-H460 lung): 6.97 µM | TGI (NCI-H460 lung): > 25 µM | GI50 (CCRF-CEM leukemia): 8.08 µM | TGI (CCRF-CEM leukemia): > 25 µM | GI50 (SR leukemia): 5.15 µM | TGI (SR leukemia): 12.6 µM | GI50 (K-562 leukemia): 4.81 µM | TGI (K-562 leukemia): 14.2 µM | GI50 (HCT-116 colon): 8.66 µM | TGI (HCT-116 colon): > 25 µM | GI50 (UO-31 renal): 2.91 µM | TGI (UO-31 renal): > 25 µM | GI50 (EKVX NSCLC): 18.8 µM | TGI (EKVX NSCLC): > 25 µM | GI50 (HCC-2998 colon): 4.54 µM | TGI (HCC-2998 colon): 15 µM | GI50 (DU-145 prostate): > 16.6 µM | TGI (DU-145 prostate): > 25 µM | GI50 (HL-60(TB) leukemia): 4.55 µM | TGI (HL-60(TB) leukemia): 10.9 µM | GI50 (UACC-62 melanoma): 4.88 µM | TGI (UACC-62 melanoma): 11.1 µM | GI50 (UACC-257 melanoma): 4.22 µM | TGI (UACC-257 melanoma): 8.42 µM | GI50 (RXF 393 renal): 3.34 µM | TGI (RXF 393 renal): 9.6 µM | GI50 (CAKI-1 renal): 12.3 µM | TGI (CAKI-1 renal): > 25 µM | GI50 (BT-549 breast): > 23.4 µM | TGI (BT-549 breast): > 25 µM | GI50 (KM12 colon): 8.3 µM | TGI (KM12 colon): > 25 µM | GI50 (SF-268 CNS): 9.79 µM | TGI (SF-268 CNS): > 25 µM | GI50 (A498 renal): 6.53 µM | TGI (A498 renal): > 25 µM | GI50 (M14 melanoma): 4.37 µM | TGI (M14 melanoma): 9.06 µM | GI50 (TK-10 renal): 12.9 µM | TGI (TK-10 renal): > 25 µM | GI50 (OVCAR-8 ovarian): > 20.1 µM | TGI (OVCAR-8 ovarian): > 25 µM | GI50 (NCI-H522 lung): 6.77 µM | TGI (NCI-H522 lung): > 25 µM | GI50 (SF-539 CNS): 15.5 µM | TGI (SF-539 CNS): > 25 µM | GI50 (HOP-92 NSCLC): 3.61 µM | TGI (HOP-92 NSCLC): > 25 µM | GI50 (SNB-75 CNS): 5.97 µM | TGI (SNB-75 CNS): > 16.9 µM | GI50 (MOLT-4 leukemia): 6.37 µM | TGI (MOLT-4 leukemia): 17.3 µM | GI50 (T-47D breast): 12.5 µM | TGI (T-47D breast): > 25 µM | GI50 (SK-MEL-28 melanoma): 4.29 µM | TGI (SK-MEL-28 melanoma): 8.49 µM | GI50 (SK-OV-3 ovarian): 20.1 µM | TGI (SK-OV-3 ovarian): > 25 µM | GI50 (RPMI-8226 leukemia): 10.2 µM | TGI (RPMI-8226 leukemia): > 25 µM | GI50 (IGROV1 ovarian): 10.2 µM | TGI (IGROV1 ovarian): > 25 µM | GI50 (HCT-15 colon): 7.26 µM | TGI (HCT-15 colon): > 25 µM | GI50 (ACHN renal): 10.3 µM | TGI (ACHN renal): > 25 µM | GI50 (MDA-MB-231 breast): 3.83 µM | TGI (MDA-MB-231 breast): 11.1 µM | GI50 (OVCAR-3 ovarian): 8.88 µM | TGI (OVCAR-3 ovarian): > 25 µM | GI50 (MDA-MB-435): 5.46 µM | TGI (MDA-MB-435): 15.2 µM | GI50 (HS 578T breast): 7.7 µM | TGI (HS 578T breast): > 25 µM | GI50 (SK-MEL-5 melanoma): 3.48 µM | TGI (SK-MEL-5 melanoma): 6.75 µM | GI50 (PC-3 prostate): 9.36 µM | TGI (PC-3 prostate): > 25 µM | GI50 (NCI-H226 lung): 3.72 µM | TGI (NCI-H226 lung): 11.2 µM | GI50 (SN12C renal): 15.3 µM | TGI (SN12C renal): > 25 µM | GI50 (SF-295 CNS): 6.91 µM | TGI (SF-295 CNS): > 17.2 µM | GI50 (MCF7 breast): 7.77 µM | TGI (MCF7 breast): > 18.2 µM | GI50 (HOP-62 NSCLC): 8.53 µM | TGI (HOP-62 NSCLC): > 25 µM | GI50 (HT29 colon): 6.58 µM | TGI (HT29 colon): > 23.9 µM | GI50 (A549 NSCLC): > 21.5 µM | TGI (A549 NSCLC): > 25 µM | GI50 (786-0 renal): 7.69 µM | TGI (786-0 renal): > 25 µM | GI50 (COLO 205 colon): 4.23 µM | TGI (COLO 205 colon): 8.71 µM | GI50 (SW-620 colon): 7.33 µM | TGI (SW-620 colon): > 25 µM | GI50 (LOX IMVI melanoma): 5.06 µM | TGI (LOX IMVI melanoma): 15.2 µM | GI50 (OVCAR-4 ovarian): 11 µM | TGI (OVCAR-4 ovarian): > 25 µM | GI50 (MALME-3M melanoma): 4.32 µM | TGI (MALME-3M melanoma): 9.36 µM | GI50 (OVCAR-5 ovarian): 11.2 µM | TGI (OVCAR-5 ovarian): > 25 µM | GI50 (SNB-19 CNS): > 19.6 µM | TGI (SNB-19 CNS): > 25 µM | GI50 (U251 CNS): 10.7 µM | TGI (U251 CNS): > 25 µM | GI50 (NCI/ADR-RES ovarian): 8.48 µM | TGI (NCI/ADR-RES ovarian): > 25 µM | GI50 (NCI-H23 lung): > 25 µM | TGI (NCI-H23 lung): > 25 µM | GI50 (SK-MEL-2 melanoma): 5.33 µM | TGI (SK-MEL-2 melanoma): 14.2 µM
